Reference: ChEMBL document CHEMBL1157566, “Cytotoxic and anti-inflammatory cembranoids from the Dongsha Atoll soft coral Sarcophyton crassocaule” (2010)
Converted amounts (≈) assume the structure as drawn.

Legend:
Assay type in all cases: functional
RAW264.7 [1] = assay: Antiinflammatory activity in mouse RAW264.7 cells assessed as inhibition of LPS-stimulated iNOS protein expression by measuring iNOS protein level at 10 uM by Western blot relative to untreated control
MCF7 = assay: Cytotoxicity against human MCF7 cells by MTT assay; conditions: read-out: ED50 (the source's name)
WiDr = assay: Cytotoxicity against human WiDr cells by MTT assay; conditions: read-out: ED50 (the source's name)
HEp-2 = assay: Cytotoxicity against human Hep2 cells by MTT assay; conditions: read-out: ED50 (the source's name)
Daoy = assay: Cytotoxicity against human DaOY cells by MTT assay; conditions: read-out: ED50 (the source's name)
RAW264.7 [2] = assay: Antiinflammatory activity in mouse RAW264.7 cells assessed as inhibition of LPS-stimulated COX2 protein expression by measuring COX2 protein level at 10 uM by Western blot relative to untreated control; design: scale not given: the % may be the effect or the level left

Row | SMILES | iNOS protein level relative to control (RAW264.7 [1]) [%] | EC50 (MCF7) [µg/mL] | EC50 (WiDr) [µg/mL] | EC50 (HEp-2) [µg/mL] | EC50 (Daoy) [µg/mL] | Activity (RAW264.7 [2]) [%]
1 | C=C1C(=O)O[C@H]2[C@H]1C[C@@H]1O[C@@]1(C)CC/C=C(\C)CC/C=C(\C)[C@@H]2OC(C)=O | 6.2 | – | – | – | – | –
2 | CO[C@@]12[C@H](COC(N)=O)C3=C(C(=O)C(C)=C(N)C3=O)N1C[C@@H]1N[C@@H]12 [MITOMYCIN] | – | 0.14 (≈ 0.419 µM) | 0.15 (≈ 0.449 µM) | 0.07 (≈ 0.209 µM) | 0.14 (≈ 0.419 µM) | –
3 | C=C1C(=O)O[C@@H]2[C@@H]1C[C@H](O)[C@@]1(C)CC[C@@H](O1)C(=C)CC/C=C(\C)[C@@H]2OC(C)=O [SARCOCRASSOCOLIDE A] | 13.7 | 4.2 (≈ 10.8 µM) | 4.2 (≈ 10.8 µM) | 6.2 (≈ 15.9 µM) | 8.8 (≈ 22.5 µM) | –
4 | C=C1CC/C=C(\C)[C@H](OC(C)=O)[C@@H]2OC(=O)C(=C)[C@H]2C[C@H](O)[C@@]2(C)CC[C@@H]1O2 [SARCOCRASSOCOLIDE B] | 13.3 | 3.2 (≈ 8.2 µM) | 3.2 (≈ 8.2 µM) | 4.5 (≈ 11.5 µM) | 5.6 (≈ 14.3 µM) | –
5 | C=C1C(=O)O[C@H]2C/C(C)=C/CCC(=C)[C@H]3CC[C@@](C)(O3)[C@@H](O)C[C@H]12 [SARCOCRASSOCOLIDE C] | 4.6 | 2 (≈ 6.02 µM) | 1.2 (≈ 3.61 µM) | 2.6 (≈ 7.82 µM) | 3.2 (≈ 9.63 µM) | –
6 | C=C1CC/C=C(\C)C[C@@H]2OC(=O)C(=C)[C@H]2C[C@H](O)[C@@]2(C)CC[C@@H]1O2 [SARCOCRASSOCOLIDE D] | 7 | 4.1 (≈ 12.3 µM) | 1.8 (≈ 5.41 µM) | 4 (≈ 12 µM) | 5.4 (≈ 16.2 µM) | –
7 | C=C1C(=O)O[C@@H]2C/C(C)=C/CC/C(C)=C/CC[C@]3(C)O[C@H]3C[C@@H]12 [SARCOCRASSOLIDE] | 1.1 | – | – | – | – | 3.9
